Key:
[1] = system: diazepam receptor (fresh rat frontal cortex); experiment: radioreceptor assay: inhibition of ^3 H-diazepam binding (selectivity, drugs incubated with saliva); conditions: 10^-5 M, ^3 H-diazepam 0.50 nM
[2] = system: benzodiazepine receptor (fresh rat frontal cortex); experiment: recovery of benzodiazepines pre-incubated with saliva, measured by benzodiazepine radioreceptor assay; format: binding; conditions: 100 nM diazepam pre-incubated with control saliva

Row | SMILES | inhibition of ^3 H-diazepam binding compared with saliva itself [1] | maximum percentage lowering of binding vs drug added directly with no saliva present [2]
1 | CN(C)CCCN1c2ccccc2Sc2ccc(Cl)cc21 [chlorpromazine] | failed to inhibit ^3 H-diazepam binding more than saliva itself | 
2 | CNCCCN1c2ccccc2CCc2ccccc21 [desmethylimipramine] | failed to inhibit ^3 H-diazepam binding more than saliva itself | 
3 | CN1C(=O)CN=C(c2ccccc2)c2cc(Cl)ccc21 [diazepam] |  | equivalent
4 | C=CCN1CC[C@]23CCCC[C@H]2[C@H]1Cc1ccc(O)cc13 [levallorphan] | failed to inhibit ^3 H-diazepam binding more than saliva itself | 
5 | C#CCN(C)Cc1ccccc1 [pargyline] | failed to inhibit ^3 H-diazepam binding more than saliva itself | 
6 | O=c1[nH]c2ccccc2n1C1CCN(CCCC(c2ccc(F)cc2)c2ccc(F)cc2)CC1 [pimozide] | failed to inhibit ^3 H-diazepam binding more than saliva itself | 

— patent US4431742A, “Radioreceptor assay for benzodiazepines in saliva” (The United States of America as represented by the …, priority 1981, dated 1984)
